Measurements taken from BindingDB's records for doi:10.1016/s0960-894x(02)00682-0 (Bristol-Myers Squibb Pharmaceutical Research Institute, 2002).
Peptide text beside a SMILES is read from it. * marks the point of attachment. X11 = CCCCCC[C@H](N*)B1O[C@@H]2C[C@@H]3C[C@@H](C3(C)C)[C@]2(C)O1; X14 = CCCC[C@H](N*)B1O[C@@H]2C[C@@H]3C[C@@H](C3(C)C)[C@]2(C)O1

Biological target: T1, Chymotrypsin-C (Homo sapiens, UniProt Q99895)
T1 sequence (Q99895 whole entry): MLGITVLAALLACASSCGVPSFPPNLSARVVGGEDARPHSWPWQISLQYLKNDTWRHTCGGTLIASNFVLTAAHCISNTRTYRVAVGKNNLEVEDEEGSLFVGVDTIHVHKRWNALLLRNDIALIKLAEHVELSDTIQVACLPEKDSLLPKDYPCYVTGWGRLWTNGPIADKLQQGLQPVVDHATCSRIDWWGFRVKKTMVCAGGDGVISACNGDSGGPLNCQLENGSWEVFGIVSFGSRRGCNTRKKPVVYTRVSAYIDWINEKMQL
Test: (§1) Inhibitory concentration against Human pancreatic Serine protease chymotrypsin
Compound CC(C)[C@H](NC(=O)[C@H](CCC(=O)O)NC(=O)[C@@H](N)CC(=O)O)C(=O)N[C@H](C(=O)N1CCC[C@H]1C(=O)N[C@@H](CCCCc1ccccc1)B1O[C@@H]2C[C@@H]3C[C@@H](C3(C)C)[C@]2(C)O1)C(C)C [Peptide Boronic Acid analogue] has an IC50 of 1900 nM.
Compound CC(C)[C@H](NC(=O)[C@H](CCC(=O)O)NC(=O)[C@@H](N)CC(=O)O)C(=O)N[C@H](C(=O)N1CCC[C@H]1C(=O)N[C@@H](CCc1ccc(C(F)(F)F)cc1)B1O[C@@H]2C[C@@H]3C[C@@H](C3(C)C)[C@]2(C)O1)C(C)C [Peptide Boronic Acid analogue] has an IC50 of 16000 nM.
In the case of CC[C@H](NC(=O)[C@@H]1CCCN1C(=O)[C@@H](NC(=O)[C@@H](NC(=O)[C@H](CCC(=O)O)NC(=O)[C@@H](N)CC(=O)O)C(C)C)C(C)C)B1O[C@@H]2C[C@@H]3C[C@@H](C3(C)C)[C@]2(C)O1 [Peptide Boronic Acid analogue], the IC50 is reported as greater than 60000 nM.
Cc1ccc(CC[C@H](NC(=O)[C@@H]2CCCN2C(=O)[C@@H](NC(=O)[C@@H](NC(=O)[C@H](CCC(=O)O)NC(=O)[C@@H](N)CC(=O)O)C(C)C)C(C)C)B2O[C@@H]3C[C@@H]4C[C@@H](C4(C)C)[C@]3(C)O2)cc1 [Peptide Boronic Acid analogue] showed an IC50 of 3700 nM.
In the case of CCCCCC[C@H](NC(=O)[C@@H]1CCCN1C(=O)[C@@H](NC(=O)[C@@H](NC(=O)[C@H](CCC(=O)O)NC(=O)[C@@H](N)CC(=O)O)C(C)C)C(C)C)B1O[C@@H]2C[C@@H]3C[C@@H](C3(C)C)[C@]2(C)O1 [Peptide Boronic Acid analogue] (H-DEVVP-X11), the IC50 is reported as 420 nM.
In the case of CCCC[C@H](NC(=O)[C@@H]1CCCN1C(=O)[C@@H](NC(=O)[C@@H](NC(=O)[C@H](CCC(=O)O)NC(=O)[C@@H](N)CC(=O)O)C(C)C)C(C)C)B1O[C@@H]2C[C@@H]3C[C@@H](C3(C)C)[C@]2(C)O1 [Peptide Boronic Acid analogue] (H-DEVVP-X14), the IC50 is reported as 2100 nM.

Biological target: T1, Chymotrypsin-C
Test: ChEBML_197808
Description: as §1
Compound CC(C)[C@H](NC(=O)[C@H](CCC(=O)O)NC(=O)[C@@H](N)CC(=O)O)C(=O)N[C@H](C(=O)N1CCC[C@H]1C(=O)N[C@@H](CCc1ccc(-c2ccccc2)cc1)B1O[C@@H]2C[C@@H]3C[C@@H](C3(C)C)[C@]2(C)O1)C(C)C [Peptide Boronic Acid analogue] has an IC50 of 48 µM.

Biological target: not listed separately
Test: Inhibitory concentration against Human pancreatic Serine protease chymotrypsin
CC(C)[C@H](NC(=O)[C@H](CCC(=O)O)NC(=O)[C@@H](N)CC(=O)O)C(=O)N[C@H](C(=O)N1CCC[C@H]1C(=O)N[C@@H](CCc1ccc(C(C)(C)C)cc1)B1O[C@@H]2C[C@@H]3C[C@@H](C3(C)C)[C@]2(C)O1)C(C)C [Peptide Boronic Acid analogue] gave an IC50 greater than 60 µM.
In the case of CC(C)[C@H](NC(=O)[C@H](CCC(=O)O)NC(=O)[C@@H](N)CC(=O)O)C(=O)N[C@H](C(=O)N1CCC[C@H]1C(=O)N[C@@H](CCc1ccc(C2CCCCC2)cc1)B1O[C@@H]2C[C@@H]3C[C@@H](C3(C)C)[C@]2(C)O1)C(C)C [Peptide Boronic Acid analogue], the IC50 is reported as greater than 60 µM.
With CC(C)[C@H](NC(=O)[C@H](CCC(=O)O)NC(=O)[C@@H](N)CC(=O)O)C(=O)N[C@H](C(=O)N1CCC[C@H]1C(=O)N[C@@H](CCc1ccc(Oc2ccccc2)cc1)B1O[C@@H]2C[C@@H]3C[C@@H](C3(C)C)[C@]2(C)O1)C(C)C [Peptide Boronic Acid analogue] the IC50 was greater than 60 µM.
CC(C)c1ccc(CC[C@H](NC(=O)[C@@H]2CCCN2C(=O)[C@@H](NC(=O)[C@@H](NC(=O)[C@H](CCC(=O)O)NC(=O)[C@@H](N)CC(=O)O)C(C)C)C(C)C)B2O[C@@H]3C[C@@H]4C[C@@H](C4(C)C)[C@]3(C)O2)cc1 [Peptide Boronic Acid analogue] showed an IC50 greater than 60 µM.
COc1ccc(CC[C@H](NC(=O)[C@@H]2CCCN2C(=O)[C@@H](NC(=O)[C@@H](NC(=O)[C@H](CCC(=O)O)NC(=O)[C@@H](N)CC(=O)O)C(C)C)C(C)C)B2O[C@@H]3C[C@@H]4C[C@@H](C4(C)C)[C@]3(C)O2)cc1 [Peptide Boronic Acid analogue] gave an IC50 of 20 µM.
